What was measured:
Format in all cases: in vivo
[1] = tested on: arrowleaf sida (Sida rhombifolia); assay: Test E greenhouse herbicide test, pre- and postemergence
How it was run: (§1)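 Scores (0–100, visual, vs controls) reflect greenhouse growth of 14 to 21 d after treatment. Application was pre-emergence to silt loam or post-emergence at the 1- to 4-leaf stage.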

[2] = tested on: crabgrass, Brazilian (Brazilian crabgrass, Digitaria horizontalis); assay: as above
How it was run: as §1

[3] = tested on: foxtail, giant (giant foxtail, Setaria faberii); assay: as above; details: Preemergence
How it was run: as §1

[4] = tested on: foxtail, green (green foxtail, Setaria viridis); assay: as above; details: Preemergence
How it was run: as §1

[5] = tested on: horseweed (Conyza canadensis); assay: as above; details: Postemergence
How it was run: as §1

[6] = tested on: johnsongrass (Sorghum halepense); assay: as above; details: Preemergence
How it was run: as §1

kochia (Kochia scoparia) = assay: as above
How it was run: as §1

[7] = tested on: lambsquarters (Chenopodium album); assay: as above; details: Preemergence
How it was run: as §1

[8] = tested on: nutsedge, yellow (yellow nutsedge, Cyperus esculentus); assay: as above; details: Preemergence
How it was run: as §1

[9] = tested on: pigweed, palmer (palmer pigweed, Amaranthus palmeri); assay: as above
How it was run: as §1

[10] = tested on: ragweed (common ragweed, Ambrosia elatior); assay: as above
How it was run: as §1

[11] = tested on: sandbur (southem sandbur, Cenchrus echinatus); assay: as above
How it was run: as §1

soybean (Glycine max) = assay: as above
How it was run: as §1

[12] = tested on: velvetleaf (Abutilon theophrasti); assay: as above; details: Preemergence
How it was run: as §1

[13] = tested on: waterhemp (common waterhemp, Amaranthus rudis); assay: as above
How it was run: as §1

[14] = tested on: waterhemp_RES1 (ALS & Triazine resistant common waterhemp, Amaranthus rudis); assay: Test E greenhouse herbicide test, postemergence
How it was run: (§2)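 Postemergence spray on potted plants, 1–4 leaves, 2–18 cm; greenhouse 14–21 d; visual rating vs controls, 0 (no effect) to 100 (complete control).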

[15] = tested on: waterhemp_RES2 (ALS & HPPD resistant common waterhemp, Amaranthus rudis); assay: Test E greenhouse herbicide test, postemergence
How it was run: as §2

[16] = 62 g ai/ha, Postemergence, scale 0 to 100 (0 no effect, 100 complete control)
[17] = 62 g ai/ha, Preemergence, scale 0 to 100 (0 no effect, 100 complete control)
[18] = 125 g ai/ha, Postemergence, scale 0 to 100 (0 no effect, 100 complete control)
[19] = 125 g ai/ha, Preemergence, scale 0 to 100 (0 no effect, 100 complete control)
[20] = 250 g ai/ha, Postemergence, scale 0 to 100 (0 no effect, 100 complete control)
[21] = Postemergence, 31 g ai/ha, visual, scale 0 no effect to 100 complete control
[22] = Preemergence, 31 g ai/ha, scale 0 to 100, 0 no effect, 100 complete control
[23] = Preemergence, 250 g ai/ha, visual, scale 0 no effect to 100 complete control
[24] = 62 g ai/ha, scale 0 to 100 (0 no effect, 100 complete control)
[25] = 125 g ai/ha, scale 0 to 100 (0 no effect, 100 complete control)
[26] = 31 g ai/ha, scale 0 to 100, 0 no effect, 100 complete control
[27] = 250 g ai/ha, visual, scale 0 no effect to 100 complete control
[28] = 250 g ai/ha, scale 0 to 100 (0 no effect, 100 complete control)
[29] = 31 g ai/ha, visual, scale 0 no effect to 100 complete control

## Cc1cc(C)c2sc(C)c(-c3c(OC(=O)OCCCl)c(C)nn(C)c3=O)c2c1 [Compound 85]
[1]; [16]
  Plant response rating, Arrowleaf Sida: 50
[1]; [17]
  Plant response rating, Arrowleaf Sida: 0
[1]; [18]
  Plant response rating, Arrowleaf Sida: 50
[1]; [19]
  Plant response rating, Arrowleaf Sida: 50
[1]; [20]
  Plant response rating, Arrowleaf Sida: 50
[1]; [21]
  Plant response rating, Arrowleaf Sida: 40
[1]; [22]
  Plant response rating, Arrowleaf Sida: 0
[1]; [23]
  Plant response rating, Arrowleaf Sida: 70
[2]; [16]
  Plant response rating, Crabgrass, Brazil: 30
[2]; [17]
  Plant response rating, Crabgrass, Brazil: 50
[2]; [18]
  Plant response rating, Crabgrass, Brazil: 50
[2]; [19]
  Plant response rating, Crabgrass, Brazil: 80
[2]; [20]
  Plant response rating, Crabgrass, Brazil: 50
[2]; [21]
  Plant response rating, Crabgrass, Brazil: 15
[2]; [22]
  Plant response rating, Crabgrass, Brazil: 10
[2]; [23]
  Plant response rating, Crabgrass, Brazil: 90
[3]; [24]
  Plant response rating, Foxtail, Giant: 65
[3]; [25]
  Plant response rating, Foxtail, Giant: 95
[3]; [26]
  Plant response rating, Foxtail, Giant: 15
[3]; [27]
  Plant response rating, Foxtail, Giant: 100
[4]; [24]
  Plant response rating, Foxtail, Green: 25
[4]; [25]
  Plant response rating, Foxtail, Green: 15
[4]; [26]
  Plant response rating, Foxtail, Green: 0
[4]; [27]
  Plant response rating, Foxtail, Green: 100
[5]; [24]
  Plant response rating, Horseweed: 85
[5]; [25]
  Plant response rating, Horseweed: 85
[5]; [28]
  Plant response rating, Horseweed: 90
[5]; [29]
  Plant response rating, Horseweed: 60
[6]; [24]
  Plant response rating, Johnsongrass: 0
[6]; [25]
  Plant response rating, Johnsongrass: 0
[6]; [26]
  Plant response rating, Johnsongrass: 0
[6]; [27]
  Plant response rating, Johnsongrass: 0
Kochia (Kochia scoparia); [16]
  Plant response rating, Kochia: 70
Kochia (Kochia scoparia); [17]
  Plant response rating, Kochia: 0
Kochia (Kochia scoparia); [18]
  Plant response rating, Kochia: 80
Kochia (Kochia scoparia); [19]
  Plant response rating, Kochia: 0
Kochia (Kochia scoparia); [20]
  Plant response rating, Kochia: 80
Kochia (Kochia scoparia); [21]
  Plant response rating, Kochia: 60
Kochia (Kochia scoparia); [22]
  Plant response rating, Kochia: 0
Kochia (Kochia scoparia); [23]
  Plant response rating, Kochia: 98
[7]; [24]
  Plant response rating, Lambsquarters: 100
[7]; [25]
  Plant response rating, Lambsquarters: 100
[7]; [26]
  Plant response rating, Lambsquarters: 70
[7]; [27]
  Plant response rating, Lambsquarters: 100
[8]; [24]
  Plant response rating, Nutsedge, Yellow: 35
[8]; [25]
  Plant response rating, Nutsedge, Yellow: 35
[8]; [27]
  Plant response rating, Nutsedge, Yellow: 65
[9]; [16]
  Plant response rating, Pigweed, Palmer: 80
[9]; [17]
  Plant response rating, Pigweed, Palmer: 30
[9]; [18]
  Plant response rating, Pigweed, Palmer: 80
[9]; [19]
  Plant response rating, Pigweed, Palmer: 50
[9]; [20]
  Plant response rating, Pigweed, Palmer: 80
[9]; [21]
  Plant response rating, Pigweed, Palmer: 65
[9]; [22]
  Plant response rating, Pigweed, Palmer: 25
[9]; [23]
  Plant response rating, Pigweed, Palmer: 90
[10]; [16]
  Plant response rating, Ragweed: 50
[10]; [17]
  Plant response rating, Ragweed: 80
[10]; [18]
  Plant response rating, Ragweed: 60
[10]; [19]
  Plant response rating, Ragweed: 90
[10]; [20]
  Plant response rating, Ragweed: 85
[10]; [21]
  Plant response rating, Ragweed: 50
[10]; [22]
  Plant response rating, Ragweed: 60
[10]; [23]
  Plant response rating, Ragweed: 98
[11]; [17]
  Plant response rating, Sandbur: 50
[11]; [18]
  Plant response rating, Sandbur: 70
[11]; [19]
  Plant response rating, Sandbur: 80
[11]; [20]
  Plant response rating, Sandbur: 70
[11]; [21]
  Plant response rating, Sandbur: 40
[11]; [22]
  Plant response rating, Sandbur: 0
[11]; [23]
  Plant response rating, Sandbur: 90
Soybean (Glycine max); [17]
  Plant response rating, Soybean: 0
Soybean (Glycine max); [18]
  Plant response rating, Soybean: 5
Soybean (Glycine max); [19]
  Plant response rating, Soybean: 0
Soybean (Glycine max); [20]
  Plant response rating, Soybean: 15
Soybean (Glycine max); [21]
  Plant response rating, Soybean: 0
Soybean (Glycine max); [22]
  Plant response rating, Soybean: 0
Soybean (Glycine max); [23]
  Plant response rating, Soybean: 0
[12]; [24]
  Plant response rating, Velvetleaf: 30
[12]; [25]
  Plant response rating, Velvetleaf: 70
[12]; [26]
  Plant response rating, Velvetleaf: 0
[12]; [27]
  Plant response rating, Velvetleaf: 95
[13]; [17]
  Plant response rating, Waterhemp: 80
[13]; [18]
  Plant response rating, Waterhemp: 65
[13]; [19]
  Plant response rating, Waterhemp: 70
[13]; [20]
  Plant response rating, Waterhemp: 90
[13]; [21]
  Plant response rating, Waterhemp: 50
[13]; [22]
  Plant response rating, Waterhemp: 35
[13]; [23]
  Plant response rating, Waterhemp: 85
[14]; [29]
  Plant response rating, Waterhemp_RES1: 80
[14]; [25]
  Plant response rating, Waterhemp_RES1: 75
[14]; [28]
  Plant response rating, Waterhemp_RES1: 80
[15]; [29]
  Plant response rating, Waterhemp_RES2: 40
[15]; [25]
  Plant response rating, Waterhemp_RES2: 40
[15]; [28]
  Plant response rating, Waterhemp_RES2: 50

Source: patent publication US10597388B2, “Pyridazinone herbicides” (FMC CORPORATION, priority 2014, dated 2020)
